Results from article PMC5430962, “Retro-inverso Urokinase Receptor Antagonists for the Treatment of Metastatic Sarcomas” (Scientific Reports, 2017).
[ ]: non-standard residue; d: D form. Aib = CC(C)(N)C(=O)O

Assays:
cell proliferation = assay: Cell proliferation, xCELLigence RTCA; assay type: cell-based; conditions: 10 µM in growth medium, 85 hr, replaced every 24 hr
Protocol: Cell proliferation was assessed using the xCELLigence RTCA technology as described. Cells (2 × 10^3/well) were seeded in E-well plates in growth medium and left to growth for 85 hr in the presence or the absence of 10 µM RI-3. For MTS assay, cells seeded on plates in growth medium plus/minus 10 µM RI-3, were allowed to proliferate at 37 °C in 5% CO2 and the absorbance of adherent cells stained with tetrazolium/formazan was assessed with a microplate reader. In both cases, medium with or without RI-3 was replaced every 24 hr. Data are the means ± SD of three independent experiments, performed in triplicate.

FPR1 = molecular target: T1, FPR1 (Homo sapiens, UniProt P21462); assay: Agonist-dependent FPR1 internalization, fluorescence microscopy in RBL-2H3/ETFR cells; assay type: cell-based; conditions: 100 nM peptide 30 min at 37 °C, then 10 nM FITC-fMLF 30 min at 37 °C; confocal microscopy
T1 construct: expressed in transfected cells; host or cells: rat basophilic leukaemia RBL-2H3/ETFR cells (gift of F. Blasi)
T1 sequence (P21462 1-350): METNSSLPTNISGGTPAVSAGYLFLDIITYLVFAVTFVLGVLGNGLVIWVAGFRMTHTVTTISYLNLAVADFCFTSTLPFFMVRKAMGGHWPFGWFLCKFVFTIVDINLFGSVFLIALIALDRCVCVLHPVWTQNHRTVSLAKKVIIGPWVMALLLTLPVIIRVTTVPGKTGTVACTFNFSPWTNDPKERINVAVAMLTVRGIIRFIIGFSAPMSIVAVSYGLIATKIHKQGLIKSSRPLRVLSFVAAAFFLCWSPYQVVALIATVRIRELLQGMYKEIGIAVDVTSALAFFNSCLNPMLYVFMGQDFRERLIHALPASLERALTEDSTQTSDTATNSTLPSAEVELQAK
Protocol: Cells grown on glass slides to semi-confluence were exposed to diluents or the indicated unlabeled peptides for 30 min at 37 °C, then to 10 nM FITC-fMLF in PBS for additional 30 min at 37 °C and extensively rinsed with PBS. To visualize the cytoskeleton, the cells were fixed with 2.5% formaldehyde, permeabilized with 0.1% Triton X-100 for 10 min at 4 °C, and incubated with 0.1 µg/mL rhodamine-conjugated phalloidin (Sigma-Aldrich) for 40 min. In all cases, coverslips were mounted using 20% (w/v) Mowiol, visualized with a Zeiss 510META-LSM microscope (Carl Zeiss), and z-series were collected at 0.20 µm intervals.

Which results are given for “Ac-[dY][dR][Aib][dR]-NH2 (SMILES CC(=O)N[C@H](Cc1ccc(O)cc1)C(=O)N[C@H](CCCNC(=N)N)C(=O)NC(C)(C)C(=O)N[C@H](CCCNC(=N)N)C(N)=O) [RI-3]”?
effect on cell proliferation and doubling times (xCELLigence) (cell proliferation): no difference was apparent; effect on agonist-dependent FPR1 internalization (FPR1): paucity of FPR1 internalization
